Where two headings read alike, the source gives them in different places. One block for each molecule: values may come before it.
Experiments:
[1] = rat, in vivo, 100 mg/kg
Method: (§1) The delivery agents were reconstituted with distilled water and/or propylene glycol and adjusted to an apparent pH of 7.2-8.0 with either aqueous hydrochloric acid or aqueous sodium hydroxide. A stock solution of parathyroid hormone was prepared by dissolving parathyroid hormone in water. The parathyroid hormone solution was then added to the delivery agent solution. Several different delivery agent to active agent ratios were studied.
(§2) Male Sprague-Dawley rats weighing 200-250 g were fasted for 24 hours and administered ketamine (44 mg/kg) and chlorpromazine (1.5 mg/kg) 15 minutes prior to dosing. The rats were administered one of the dosing solutions described above by oral gavage or intracolonic instillation. Blood samples were collected serially from the tail artery for serum determination of parathyroid hormone concentration. Serum parathyroid hormone concentrations were quantified by a parathyroid hormone radioimmunoassay test kit.
(§3) Oral administration of solutions containing parathyroid hormone (PTH) and the non-α-amino acid delivery agents was tested in vivo in rats.

[2] = Delivery agent enhancement of salmon calcitonin bioavailability, subcutaneous administration in rats (serum calcium); format: in vivo, Male Sprague-Dawley rats; conditions: sCT 0.2 μg/kg
[3] = Delivery agent enhancement of parathyroid hormone bioavailability in rats (serum PTH radioimmunoassay)
Method: as §1, §2, §3

[4] = Delivery agent enhancement of rhGH bioavailability, subcutaneous administration in rats
Method: The delivery agents were reconstituted with distilled water and adjusted to pH 7.2-8.0 with either aqueous hydrochloric acid or aqueous sodium hydroxide. A stock solution of rhGH was prepared by mixing rhGH, D-mannitol and glycine and dissolving this mixture in 2% glycerol/water. The stock solution was then added to the delivery agent solution. Several delivery agent to active agent ratios were studied.
Male Sprague-Dawley rats weighing 200-250g were fasted for 24 hours and administered ketamine (44 mg/kg) and chlorpromazine (1.5 mg/kg) 15 minutes prior to dosing. The rats were administered one of the dosing solutions described above by subcutaneous injection, intranasal instillation, or sublingual instillation. Blood samples were collected serially from the tail artery for serum calcium concentration determination or serum rhGH concentrations. The dose of rhGH administered in these experiments was 0.1 mg/kg.
Serum rhGH concentrations were quantified by an rhGH enzyme immunoassay test kit.

[5] = In vivo delivery of heparin by oral administration in rats (APTT)
Method: In a test tube, 900 mg of carrier were dissolved in 3 mL of propylene glycol, and 0.299 g of sodium heparin was dissolved in 3 mL of water. The solutions were mixed by vortex. Sodium hydroxide (10 M) was added to the resulting mixture until a solution was obtained. The pH was then adjusted to 7.4+/−0.5 with concentrated hydrochloric acid, and the final solution was sonicated at for 30 minutes.
A group of fasted, conscious rats were administered the dosing compositions by oral gavage. Blood samples were collected by cardiac puncture following the administration of ketamine (44 mg/kg)., Heparin activity was determined by utilizing the activated partial thromboplastim time (APTT) according to the method of Henry, J. B., Clinical Diagnosis and Management by Laboratory Methods; Philadelphia, Pa.; W B Saunders (1979).
Heparin (100 mg/kg) was administered by oral gavage to rats, and heparin activity was determined according to the procedure of Example 44.

[6] = In vivo delivery of salmon calcitonin in rats (serum calcium)
Method: 400 mg of carrier were added to 2.9 mL of 25% aqueous propylene glycol. The resultant solution was stirred, and the pH was adjusted to 7.2 with sodium hydroxide (1.0 N). Water was added to bring the total volume to […]. […] Calcitonin (10 μg) was added to the solution. The total calcitonin concentration was 2.5 μg/mL.
For each sample a group of fasted rats were anesthetized. The rats were administered the dosing composition by oral gavage, intracolonic instillation, or intraduodenal administration. Blood samples were collected serially from the tail artery. Serum calcium was determined by testing with a Calcium Kit (Sigma Chemical Company, St. Louis, Mo., USA).

[7] = In vivo delivery of interferon α2b by intracolonic administration in rats (ELISA); conditions: carrier dose 100 mg/kg, interferon dose 250 μg/kg
Method: Propylene glycol (0-25%) was added as a solubilizing agent, if necessary.
Rats were administered the dosing composition by oral gavage, intraduodenal administration, or intracolonic administration.

[8] = In vivo delivery of rhGH in rats (serum rhGH by ELISA); conditions: oral, no carrier (0 mg/kg), rhGH dose 6 mg/kg
Method: Dosing compositions were prepared by mixing the modified amino acids and recombinant human growth hormone (rhGH) as listed in Table 1 below in a phosphate buffer solution at a pH of about 7-8.
Rats were administered the dosing composition by sublingual, oral gavage, intraduodenal administration, or colonic administration. Delivery was evaluated by using an ELISA assay for rhGH from Medix Biotech, Inc. For intracolonic administration, a sample was prepared and dosed to fasted rats at 25 mg/kg of carrier in a buffered solution containing propylene glycol (0-50%) and 1 mg/kg rhGH.

[9] = intracolonic, carrier dose 100 mg/kg, PTH dose 25 μg/kg
[10] = subcutaneous, delivery agent dose 2.5 mg/kg, rhGH 0.1 mg/kg
[11] = subcutaneous, delivery agent dose 1.0 mg/kg, rhGH 0.1 mg/kg
[12] = carrier dose 300 mg/kg, heparin dose 100 mg/kg

- Peak Serum [PTH] [1]: 115 ± 20 pg/mL
Molecule: O=C(O)CCCc1ccc(NC(=O)CCOc2ccccc2)cc1 [CVIII]

- Peak Serum [PTH] [3, 9]: 65 ± 15 pg/mL
Molecule: O=C(O)CCCCCCCNC(=O)c1ccccc1Br [CXIV]
- Percent Decrease in Serum Calcium ([2]; delivery agent dose 20 μg/kg): 20 ± 3%

- Peak Serum [rhGH] [4, 10]: 16 ± 2 ng/mL
Molecule: O=C(O)CCCCCCNC(=O)c1ccccc1O [CXI]
- Percent Decrease in Serum Calcium ([2]; delivery agent dose 20 μg/kg): 21 ± 4%

- Peak Serum [rhGH] [4, 11]: 22 ± 3 ng/mL
- Peak Serum [rhGH] [4, 10]: 25 ± 5 ng/mL
- Peak Serum [rhGH] ([4]; subcutaneous, delivery agent dose 25 mg/kg, rhGH 0.1 mg/kg): 30 ± 6 ng/mL
- Peak Serum [PTH] [3, 9]: 130 ± 20 pg/mL
- Peak Serum [PTH] ([3]; oral, carrier dose 250 mg/kg, PTH dose 25 μg/kg): 20 ± 6 pg/mL
- Peak Serum [PTH] ([3]; oral, carrier dose 250 mg/kg, PTH dose 100 μg/kg): 75 ± 25 pg/mL
Molecule: O=C(O)CCCCCCCNC(=O)c1ccccc1O [CXXIII]
- Percent Decrease in Serum Calcium ([2]; delivery agent dose 2 μg/kg): 17 ± 3%
- Percent Decrease in Serum Calcium ([2]; delivery agent dose 20 μg/kg): 25 ± 4%
- Percent Decrease in Serum Calcium ([2]; delivery agent dose 200 μg/kg): 25 ± 5%
- Percent Decrease in Serum Calcium ([2]; delivery agent dose 2000 μg/kg): 26 ± 5%

- Peak Serum [rhGH] [4, 11]: 25 ± 3 ng/mL
Molecule: O=C(O)CCCCCCCNC(=O)c1cccc([N+](=O)[O-])c1 [Compound CXV]

Molecule: CCC(C(=O)NCCCC(=O)O)C1CCCCC1 (stereo not shown) [Compound III]
- Mean Peak APTT [5, 12]: 38.64 ± 17 s

Molecule: O=C(O)CCCNC(=O)C1CCCCCC1 [Compound II]
- Mean Peak APTT [5, 12]: 25.45 ± 2.8 s

Molecule: COc1ccccc1/C=C/C(=O)Nc1ccc(CCC(=O)O)cc1 [Compound LXXXVI]
- Peak Serum [PTH] [1]: 40 ± 12 pg/mL

Molecule: O=C(O)CCCNC(=O)C1CCCCC1 [Compound V]
- Mean Peak APTT [5, 12]: 87.4 ± 34.1 s
- Maximum Decrease in Serum Calcium ([6]; oral, carrier dose 400 mg/kg, calcitonin dose 10 μg/kg): 18.35 +/− 2.87 % below baseline

Molecule: O=C(O)CCCCCCCNC(=O)c1ccccc1O [Compound XIX]
- Mean Peak APTT [5, 12]: 119.99 ± 56.3 s
- Maximum Decrease in Serum Calcium ([6]; intracolonic, carrier dose 10 mg/kg, calcitonin dose 3 μg/kg): 26.49 +/− 12.3 % below baseline
- Maximum Decrease in Serum Calcium ([6]; oral, carrier dose 200 mg/kg, calcitonin dose 7.5 μg/kg): 25.48 +/− 4.7 % below baseline

- Mean Peak Serum Levels of Interferon [7]: 4238 ± 2789 pg/mL
Molecule: O=C(O)CCCCCCCNC(=O)/C=C/c1ccccc1O [Compound XXI]

Molecule: O=C(O)CCCCCCCCCNC(=O)c1ccccc1O [Compound XXXI]
- Mean Peak APTT ([5]; carrier dose 50 mg/kg, heparin dose 10 mg/kg): 50.85 ± 9.1 s
- Mean Peak APTT ([5]; carrier dose 50 mg/kg, heparin dose 25 mg/kg): 127.56 ± 22.97 s

- Peak Serum [PTH] [1]: 145 ± 25 pg/mL
Molecule: CN(C)c1cccc(C(=O)Nc2ccc(CCCC(=O)O)cc2)c1 [LVIII]

Molecule: COc1ccccc1/C=C/C(=O)Nc1ccc(CCCC(=O)O)cc1 [LXXXIX]
- Peak Serum [PTH] [1]: 70 ± 15 pg/mL

Molecule: rhGH: recombinant human growth hormone, active agent dosed alone (Comparative Examples 5A, 16A)
- Peak Serum [rhGH] ([4]; no delivery agent (0.0 mg/kg), rhGH alone): 4 ± 2 ng/mL
- Mean Peak Serum Levels of rhGH [8]: <10 ± 10 ng/mL
